According to patent US20250277247A1, “NUCLEIC ACID AMPLIFICATIONS” (priority 2012, published 2025):

Columns and labels:
[1] = NEAR reaction mixture, buffer pH 8 at room temperature, temperature increased to 56° C.; cited from earlier work
[2] = test system: genomic DNA from Mycobacterium bovis BCG; type: biochemical, Mycobacterium bovis BCG (ATCC strain 190115); conditions: 15 mM EGTA, 15 mM MgSO4; 15 minutes at room temperature, then 56° C., monitored 40 minutes; 20 or 200 copies vs no template
[3] = test system: purified influenza A viral RNA; type: biochemical; conditions: 14 mM EGTA, 15 mM MgSO4, 100 mM Tris-Cl; about 20 minutes at room temperature, then 56° C., monitored 10 minutes; 0 or 100 copies
[4] = cited from earlier work

NC(CO)(CO)CO [Tris, tris(hydroxymethyl)aminomethane]
pH of the temperature sensitive buffer [1]: < 7.4

O=C(O)CN(CCOCCOCCN(CC(=O)O)CC(=O)O)CC(=O)O [EGTA, Ethylene bis(oxyethylenenitrilo) tetraacetic acid]
Amplification (real-time fluorescence) [2]: significant amplification was observed | Amplification (real-time fluorescence) [3]: Amplification was observed only in the reactions that included both EGTA and 100 copies of viral RNA

O=S(=O)(O)CCN1CCN(CCS(=O)(=O)O)CC1 [PIPES, piperazine-N,N′-bis(2-ethanesulfonic acid)]
pKa (20° C.) ([4]; 20° C.): 6.80 | pKa (25° C.) ([4]; 25° C.): 6.76 | pKa (37° C.) ([4]; 37° C.): 6.66
